Calls of active or inactive are those of the source. The rule behind the calls is not given here.
Tests used:
Rattus norvegicus [1] = test: Antidiabetic activity against STZ-induced diabetic Sprague-Dawley rat model assessed as reduction in total cholesterol level in serum at 160 mg/kg, IG administered once daily for 28 days relative to control; assay type: functional; set-up: scale not given: the % may be the effect or the level left; details: time 28 day
Rattus norvegicus [2] = species: Rattus norvegicus; test: Selectivity index, ratio of IC50 for Wistar rat kidney ALR1 to IC50 for Wistar rat lens ALR2
Rattus norvegicus [3] = test: Antidiabetic activity against STZ-induced diabetic Sprague-Dawley rat model assessed as reduction in fasting blood glucose level at 160 mg/kg, IG administered once daily for 28 days; assay type: functional; set-up: scale not given: the % may be the effect or the level left; details: time 28 day
Rattus norvegicus [4] = test: Antioxidant activity against STZ-induced diabetic Sprague-Dawley rat model assessed as reduction in GSH level at 160 mg/kg, IG administered once daily for 28 days relative to control; assay type: functional; set-up: scale not given: the % may be the effect or the level left; details: time 28 day
[5] = In vivo inhibition of ALR2 in STZ-induced diabetic Sprague-Dawley rat model assessed as reduction in sorbitol accumulation in lens at 80 mg/kg, IG administered once daily for 28 days by colorimetric assay relative to control; assay type: functional; set-up: scale not given: the % may be the effect or the level left; details: time 28 day
[6] = Octanol/buffer distribution coefficient, log D of compound at pH 7.4 incubated for 24 hrs by shake flask based HPLC method; assay type: physicochemical
HEK-293T = test: Cytotoxicity against HEK293T cells at 15 to 200 micromol/L by MTT assay; assay type: toxicity, cell-based; details: human, dose 15-200 µmol/L
Rattus norvegicus [7] = test: Antidiabetic activity against STZ-induced diabetic Sprague-Dawley rat model assessed as reduction in triglycerides level in liver at 160 mg/kg, IG administered once daily for 28 days relative to control; assay type: functional; set-up: scale not given: the % may be the effect or the level left; details: time 28 day
[8] = Inhibition of Wistar rat kidney ALR1 using sodium D-glucuronate as substrate preincubated for 10 mins in presence of NADPH followed by substrate addition and measured after 4 mins; assay type: tissue-based
[9] = In vivo inhibition of ALR2 in STZ-induced diabetic Sprague-Dawley rat model assessed as reduction in sorbitol accumulation in lens at 160 mg/kg, IG administered once daily for 28 days by colorimetric assay relative to control; assay type: functional; set-up: scale not given: the % may be the effect or the level left; details: time 28 day
Rattus norvegicus [10] = test: Antidiabetic activity against 12 hrs fasted STZ-induced diabetic Sprague-Dawley rat model assessed as reduction in blood glucose level at 160 mg/kg, IG administered once daily for 28 days followed by glucose addition after 30 mins post cpd treatment and measured after 30 mins post glucose treatment by oral glucose tolerance test; assay type: functional, organism-based; details: time 673.0 hrs
[11] = In vivo inhibition of ALR2 in STZ-induced diabetic Sprague-Dawley rat model assessed as reduction in ALR2 activity in lens at 80 mg/kg, IG administered once daily for 28 days relative to control; assay type: functional; set-up: scale not given: the % may be the effect or the level left; details: time 28 day
Rattus norvegicus [12] = test: Antidiabetic activity against STZ-induced diabetic Sprague-Dawley rat model assessed as reduction in total cholesterol level in liver at 160 mg/kg, IG administered once daily for 28 days relative to control; assay type: functional; set-up: scale not given: the % may be the effect or the level left; details: time 28 day
Rattus norvegicus [13] = test: Antidiabetic activity against STZ-induced diabetic Sprague-Dawley rat model assessed as reduction in total cholesterol level in liver at 80 mg/kg, IG administered once daily for 28 days relative to control; assay type: functional; set-up: scale not given: the % may be the effect or the level left; details: time 28 day
Brain [14] = test: Antioxidant activity in rat brain homogenate assessed as inhibition of lipid peroxidation by measuring MDA concentration at 5 uM by TBARS assay relative to control; assay type: functional, tissue-based; set-up: scale not given: the % may be the effect or the level left
Rattus norvegicus [15] = test: Antioxidant activity against STZ-induced diabetic Sprague-Dawley rat model assessed as reduction in MDA level at 80 to 160 mg/kg, IG administered once daily for 28 days relative to control; assay type: functional, organism-based; details: dose 80-160 mg/kg, time 28.0 day
[16] = Antioxidant activity assessed as DPPH radical scavenging activity at 1 uM incubated for 30 mins by DPPH assay relative to control; assay type: functional
[17] = In vivo inhibition of ALR2 in STZ-induced diabetic Sprague-Dawley rat model assessed as reduction in ALR2 activity in lens at 160 mg/kg, IG administered once daily for 28 days relative to control; assay type: functional; set-up: scale not given: the % may be the effect or the level left; details: time 28 day
Rattus norvegicus [18] = test: Antioxidant activity against STZ-induced diabetic Sprague-Dawley rat model assessed as reduction in GSH level at 80 mg/kg, IG administered once daily for 28 days relative to control; assay type: functional; set-up: scale not given: the % may be the effect or the level left; details: time 28 day
Brain [19] = test: Antioxidant activity in rat brain homogenate assessed as inhibition of lipid peroxidation by measuring MDA concentration at 50 uM by TBARS assay relative to control; assay type: functional, tissue-based; set-up: scale not given: the % may be the effect or the level left
Rattus norvegicus [20] = test: Antidiabetic activity against STZ-induced diabetic Sprague-Dawley rat model assessed as reduction in triglycerides level in serum at 160 mg/kg, IG administered once daily for 28 days relative to control; assay type: functional; set-up: scale not given: the % may be the effect or the level left; details: time 28 day
[21] = Antioxidant activity assessed as DPPH radical scavenging activity at 10 uM incubated for 30 mins by DPPH assay relative to control; assay type: functional
[22] = Inhibition of Wistar rat lens ALR2 using D,L-glyceraldehyde as substrate preincubated for 10 mins in presence of NADPH followed by substrate addition and measured after 4 mins; assay type: tissue-based
Brain [23] = test: Antioxidant activity in rat brain homogenate assessed as inhibition of lipid peroxidation by measuring MDA concentration at 100 uM by TBARS assay relative to control; assay type: functional, tissue-based; set-up: scale not given: the % may be the effect or the level left
[24] = Antioxidant activity assessed as DPPH radical scavenging activity at 100 uM incubated for 30 mins by DPPH assay relative to control; assay type: functional
Brain [25] = test: Antioxidant activity in rat brain homogenate assessed as inhibition of lipid peroxidation by measuring MDA concentration at 1 uM by TBARS assay relative to control; assay type: functional, tissue-based; set-up: scale not given: the % may be the effect or the level left
Rattus norvegicus [26] = test: Antidiabetic activity against STZ-induced diabetic Sprague-Dawley rat model assessed as increase in liver glycogen levels at 160 mg/kg, IG administered once daily for 28 days; assay type: functional; details: time 28 day
Rattus norvegicus [27] = test: Antidiabetic activity against STZ-induced diabetic Sprague-Dawley rat model assessed as reduction in triglycerides level in serum at 80 mg/kg, IG administered once daily for 28 days relative to control; assay type: functional; set-up: scale not given: the % may be the effect or the level left; details: time 28 day
[28] = Antioxidant activity assessed as DPPH radical scavenging activity at 5 uM incubated for 30 mins by DPPH assay relative to control; assay type: functional
Rattus norvegicus [29] = test: Antioxidant activity against STZ-induced diabetic Sprague-Dawley rat model assessed as reduction in SOD level at 80 mg/kg, IG administered once daily for 28 days relative to control; assay type: functional; set-up: scale not given: the % may be the effect or the level left; details: time 28 day
Rattus norvegicus [30] = test: Antidiabetic activity against STZ-induced diabetic Sprague-Dawley rat model assessed as reduction in fasting blood glucose level at 80 mg/kg, IG administered once daily for 28 days; assay type: functional; set-up: scale not given: the % may be the effect or the level left; details: time 28 day
[31] = Antioxidant activity assessed as DPPH radical scavenging activity at 50 uM incubated for 30 mins by DPPH assay relative to control; assay type: functional
Rattus norvegicus [32] = test: Antidiabetic activity against STZ-induced diabetic Sprague-Dawley rat model assessed as reduction in total cholesterol level in serum at 80 mg/kg, IG administered once daily for 28 days relative to control; assay type: functional; set-up: scale not given: the % may be the effect or the level left; details: time 28 day
Rattus norvegicus [33] = test: Antioxidant activity against STZ-induced diabetic Sprague-Dawley rat model assessed as reduction in SOD level at 160 mg/kg, IG administered once daily for 28 days relative to control; assay type: functional; set-up: scale not given: the % may be the effect or the level left; details: time 28 day
Brain [34] = test: Antioxidant activity in rat brain homogenate assessed as inhibition of lipid peroxidation by measuring MDA concentration at 10 uM relative to control; assay type: functional, tissue-based; set-up: scale not given: the % may be the effect or the level left
Rattus norvegicus [35] = test: Antidiabetic activity against STZ-induced diabetic Sprague-Dawley rat model assessed as reduction in triglycerides level in liver at 80 mg/kg, IG administered once daily for 28 days relative to control; assay type: functional; set-up: scale not given: the % may be the effect or the level left; details: time 28 day
[36] = In vivo inhibition of ALR2 in STZ-induced diabetic Sprague-Dawley rat model assessed as reduction in sorbitol accumulation in red blood cells at 80 mg/kg, IG administered once daily for 28 days by colorimetric assay relative to control; assay type: functional; set-up: scale not given: the % may be the effect or the level left; details: time 28 day
[37] = In vivo inhibition of ALR2 in STZ-induced diabetic Sprague-Dawley rat model assessed as reduction in sorbitol accumulation in red blood cells at 160 mg/kg, IG administered once daily for 28 days by colorimetric assay relative to control; assay type: functional; set-up: scale not given: the % may be the effect or the level left; details: time 28 day
Rattus norvegicus [38] = test: Antidiabetic activity against 12 hrs fasted STZ-induced diabetic Sprague-Dawley rat model assessed as reduction in AUC of blood glucose at 80 mg/kg, IG administered once daily for 28 days followed by maltose addition after 30 mins post cpd treatment and measured after 30 mins post maltose treatment; assay type: functional; set-up: scale not given: the % may be the effect or the level left

SMILES: COC(=O)Cn1c(=O)oc2c(C(=O)/C=C/c3ccc(O)c(O)c3)cccc21
- Activity (Rattus norvegicus [1]): 44.1%
- Ratio IC50 (Rattus norvegicus [2]): 54.6
- Activity (Rattus norvegicus [3]): 30.4%
- Activity (Rattus norvegicus [4]): 52.3%
- Activity [5]: 41.7%
- logD at 24 h [6]: 0.86
- Activity (HEK-293T): Non-Toxic
- Activity (Rattus norvegicus [7]): 33.8%
- IC50 [8]: 6.22 µM
- Activity [9]: 34.1%
- Activity (Rattus norvegicus [10]): Active
- Activity [11]: 60.8%
- Activity (Rattus norvegicus [12]): 3.1%
- Activity (Rattus norvegicus [13]): 32.1%
- Activity (Brain [14]): 60.5%
- Activity (Rattus norvegicus [15]): Active
- Activity [16]: 41.2%
- Activity [17]: 52.1%
- Activity (Rattus norvegicus [18]): 26.8%
- Activity (Brain [19]): 91.6%
- Activity (Rattus norvegicus [20]): 56.5%
- Activity [21]: 94.9%
- IC50 [22]: 0.114 µM
- Activity (Brain [23]): 97.5%
- Activity [24]: 97.5%
- Activity (Brain [25]): 35.8%
- Activity (Rattus norvegicus [26]): 36.58%
- Activity (Rattus norvegicus [27]): 44%
- Activity [28]: 89.4%
- Activity (Rattus norvegicus [29]): 35.5%
- Activity (Rattus norvegicus [30]): 20.5%
- Activity [31]: 96.5%
- Activity (Rattus norvegicus [32]): 46%
- Activity (Rattus norvegicus [33]): 81.3%
- Activity (Brain [34]): 77.5%
- Activity (Rattus norvegicus [35]): 30.6%
- Activity [36]: 59.7%
- Activity [37]: 64.7%

SMILES: C[C@H]1O[C@H](O[C@H]2[C@H](O)[C@@H](O)[C@@H](O[C@H]3[C@H](O)[C@@H](O)C(O)O[C@@H]3CO)O[C@@H]2CO)[C@H](O)[C@@H](O)[C@@H]1N[C@H]1C=C(CO)[C@@H](O)[C@H](O)[C@H]1O (stereo not given in full) [ACARBOSE]
- Activity (Rattus norvegicus [38]): 22.35%
- Activity (Rattus norvegicus [30]): 16.2%
